This is an account of results in ChEMBL document CHEMBL4715888, “Synthetic approaches to unsymmetrical 2,5-disubstituted 1,3,4-oxadiazoles and their MAO-B inhibitory activity. A review” (Bioorg Med Chem, 2021).

The species named for one assay is Rattus norvegicus. The experiment in a line: Selectivity ratio of IC50 for Sprague-Dawley rat brain mitochondrial MAO-A to IC50 for Sprague-Dawley rat brain mitochondrial MAO-B.
In assay [1] the target is T1, Amine oxidase [flavin-containing] B (Rattus norvegicus, UniProt P19643).
T1 sequence (P19643 whole entry): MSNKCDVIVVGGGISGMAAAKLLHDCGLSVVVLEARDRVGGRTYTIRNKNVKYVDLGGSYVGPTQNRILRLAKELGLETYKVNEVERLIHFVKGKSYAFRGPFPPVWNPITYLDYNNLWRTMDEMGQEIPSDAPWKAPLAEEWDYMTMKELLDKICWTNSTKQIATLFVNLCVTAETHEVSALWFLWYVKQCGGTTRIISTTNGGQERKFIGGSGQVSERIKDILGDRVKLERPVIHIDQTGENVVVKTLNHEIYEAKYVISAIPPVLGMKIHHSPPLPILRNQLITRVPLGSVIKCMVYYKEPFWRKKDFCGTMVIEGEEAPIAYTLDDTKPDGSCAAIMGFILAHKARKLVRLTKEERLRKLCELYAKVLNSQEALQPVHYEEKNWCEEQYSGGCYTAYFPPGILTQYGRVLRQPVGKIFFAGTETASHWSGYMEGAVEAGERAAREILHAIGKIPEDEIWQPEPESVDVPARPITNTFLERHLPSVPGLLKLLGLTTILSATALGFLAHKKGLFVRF
The experiment in a line: Inhibition of Sprague-Dawley rat brain mitochondrial MAO-B using [14C]-PEA as substrate preincubated for 60 mins by radiochemical method.

For assay [2], the target named is T1, Amine oxidase [flavin-containing] B. The experiment in a line: Inhibition of Sprague-Dawley rat brain mitochondrial MAO-B using [14C]-PEA as substrate preincubated for 120 mins by radiochemical method.
For assay [3] the target is unchanged. The experiment in a line: Inhibition of Sprague-Dawley rat brain mitochondrial MAO-B using [14C]-PEA as substrate by radioassay method.
The target in assay [4] is T2, Amine oxidase [flavin-containing] A (Rattus norvegicus, UniProt P21396).
T2 sequence (P21396 whole entry): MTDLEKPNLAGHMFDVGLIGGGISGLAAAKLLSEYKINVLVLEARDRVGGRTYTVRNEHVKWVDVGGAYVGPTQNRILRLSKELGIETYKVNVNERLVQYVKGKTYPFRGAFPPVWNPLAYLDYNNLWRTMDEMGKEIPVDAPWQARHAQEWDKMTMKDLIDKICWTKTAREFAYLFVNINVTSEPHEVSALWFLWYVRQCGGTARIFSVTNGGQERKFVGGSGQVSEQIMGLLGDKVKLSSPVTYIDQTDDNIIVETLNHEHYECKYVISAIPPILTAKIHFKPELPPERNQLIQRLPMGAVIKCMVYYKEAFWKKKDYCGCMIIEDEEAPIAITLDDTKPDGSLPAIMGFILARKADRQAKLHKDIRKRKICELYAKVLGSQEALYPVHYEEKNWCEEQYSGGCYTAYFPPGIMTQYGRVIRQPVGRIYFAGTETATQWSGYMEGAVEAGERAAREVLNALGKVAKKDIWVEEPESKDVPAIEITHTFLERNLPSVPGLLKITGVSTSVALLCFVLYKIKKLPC
Kind of assay: Inhibition of Sprague-Dawley rat brain mitochondrial MAO-A using [14C]-5-HT as substrate by radioassay method.

Assay [5] concerns the target T1, Amine oxidase [flavin-containing] B. The experiment in a line: Inhibition of Sprague-Dawley rat brain mitochondrial MAO-B using PEA as substrate preincubated for 60 mins. To be noted: read-out: Kieq.
Assay [6] shares this target. Kind of assay: Competitive inhibition of Sprague-Dawley rat brain mitochondrial MAO-B using PEA as substrate by Lineweaver-Burk plot analysis.

As usually defined, the IC50 is the concentration that gives 50% inhibition. Low values mean greater potency in that assay, high ones weaker potency in that assay. As for `O=c1oc(-c2ccc(OCc3ccccc3)cc2)nn1CCO`, in the assay filed under Rattus norvegicus, the Ratio IC50 is greater than 30400. Further, the IC50 in assay [1] and in assay [2] was 4.7 nM in each case.

Turning to `N#CCCn1nc(-c2ccc(OCc3ccccc3)cc2)oc1=S`, the Ratio IC50 in the assay filed under Rattus norvegicus was greater than 3200.

In the case of `N#CCCn1nc(-c2ccc(-c3ccccc3)cc2)oc1=O`, the values for the half-inhibitory concentration (IC50) in assay [3] and in assay [4] were 56 nM and 7800 nM, respectively. Also, the Ratio IC50 in the assay listed under Rattus norvegicus is 139.

For `N#CCCn1nc(-c2ccc(OCc3ccccc3)cc2)oc1=O`, the Ki in assay [5] is 0.7 nM; in assay [6] it was 220 nM. In addition, in the assay listed under Rattus norvegicus, the Ratio IC50 is greater than 71400.

Consider `N#CCCn1nc(-c2ccc(-c3ccccc3)cc2)oc1=S`, for which the figures for the IC50 in assay [3] and in assay [4] were 74 nM and 22500 nM, respectively. The Ratio IC50 in the assay filed under Rattus norvegicus turned out to be 304.
